EP3006026A1, “PHARMACEUTICAL COMPOSITION FOR TREATING ANXIETY CONTAINING L-THEANINE AND BAICALEIN” (FB HEALTH S.P.A., priority 2014, dated 2016)

Assays:
[1] = tested on: murine model of anxiety; test: elevated maze plus (EPM) test, murine model of anxiety; assay type: in vivo, mice; settings: 60 minutes prior to maze; for time in percentage on the open arms: 10 mg/kg p.o.; for percentage of time spent on the closed arms: compared to the control, 6 minutes observation
Procedure: The activity of a combination of L-theanine and baicalein was tested in a murine model of anxiety.
The mice were assigned randomly to different treatment groups and subjected to tests in a variable order.
Diazepam (Hoffmann - La Roche) was used as reference product. The diazepam was diluted to a concentration of 1.5 mg/10 ml with deionised water (Millipore quality) containing propylene glycol 0.5% (Sigma-Aldrich). Two different doses (10 mg/kg and 25 mg/kg) of bot. baicalein and L-theanine were prepared dissolving the powder in 10 ml of deionised water with propylene glycol 0.5%. All the solutions were prepared the same day as the tests and administered orally (p.o.) in a volume of 10 ml/kg by body weight of the mice. The control animals received a solution of propylene glycol 0.5%.
The animals of the experiment were treated orally with a carrier, diazepam (1.5 mg/kg, n=8), L-theanine (10 mg/kg, 25 mg/kg, n=8), baicalein (10 mg/kg, 25 mg/kg, n=8) or L-theanine + baicalein, in a ratio 1/1 (10 mg/kg, 25 mg/kg, n=8), 60 minutes prior to evaluation in the maze.
Anxiolytic activity was evaluated using the elevated maze plus (EPM) test. [ ]. The maze was composed of two open arms (31 cm x 5 cm x 1 cm) and two closed arms (31 cm x 5 cm x 15 cm) that extended from a central platform (5 cm x 5 cm) raised to a height of 40 cm from the floor. On the wooden base frame, the closed arms were made of opaque grey plastic, while the open arms were made of the same material with only one slightly raised edge. The EPM was indirectly illuminated by three 40W bulbs.
(§1) The mice were placed individually at the centre of the maze facing a closed arm and the number of entries and the time spent in the closed and open arms during an observation period of 6 minutes was recorded. Entries to the arms were defined as the entry of all four paws into an arm [ ]. The time in percentage spent on the open arms (100 x open/total time) was calculated for each animal. We also used the open field test to evaluate possible sedative or stimulating activity of the animals [ ]. The open field consisted of a rectangular opaque grey plastic arena (width 30 cm, length 27 cm, height 30 cm) and was illuminated by six 40W bulbs. The floor of the arena was divided into 6 equidistant rectangles to evaluate the number of times the lines were crossed. Groups of 8 mice were treated with diazepam (1.5 mg/kg, 3 mg/kg p.o.), L-theanine (25 mg/kg, 50 mg/kg n=8), baicalein (25 mg/kg, 50 mg/kg, n=8) or L-theanine + baicalein, in a 1/1 ratio (25 mg/kg, 50 mg/kg, n=8) or a carrier (deionised water with propylene glycol at 0.5% p.o.). All the solutions contained propylene glycol at 0.5% as solubilising substance for diazepam. 60 minutes after oral administration, each mouse was placed at the centre of the arena and recorded for 5 minutes.
The EPM and the open field test were both video recorded using a high resolution video camera WV-CP244 (Panasonic).
Statistical analysis of the data was performed using one-way analysis of variance (ANOVA) followed by the Student-Newman-Keuls multiple comparison test. In all cases the differences were considered significant if p < 0.05.

[2] = tested on: mice; test: open field test for sedative or stimulating activity; assay type: in vivo; settings: 60 minutes after administration, recorded 5 minutes
Procedure: as §1, with “Groups of 8 mice were treated with diazepam (1.5 mg/kg, 3 mg/kg p.o.), L-theanine (25 mg/kg, 50 mg/kg n=8), baicalein (25 mg/kg, 50 mg/kg, n=8) or L-theanine + baicalein, in a 1/1 ratio (25 mg/kg, 50 mg/kg, n=8) or a carrier (deionised water with propylene glycol at 0.5% p.o.). All the solutions contained propylene glycol at 0.5% as solubilising substance for diazepam.” left out
The EPM and the open field test were both video recorded using a high resolution video camera WV-CP244 (Panasonic). The videos were analysed using the TopScan Top View Animal Behaviour Analyzing System (version 1.00; Clever Sys Inc.) by an impartial person who has no knowledge of the treatment. […]

Compound: CCNC(=O)CC[C@H](N)C(=O)O [L-theanine, N-ethyl-L-glutamine]
- time in percentage on the open arms [1]: did not show any increase
- percentage of time spent on the closed arms ([1]; 25 mg/kg p.o.): significant increase

Compound: O=c1cc(-c2ccccc2)oc2cc(O)c(O)c(O)c12 [baicalein, 5,6,7-trihydroxy-2-phenyl-chromen-4-one]
- time in percentage on the open arms [1]: did not show any increase
- percentage of time spent on the closed arms ([1]; 25 mg/kg p.o.): significant increase

Compound: CN1C(=O)CN=C(c2ccccc2)c2cc(Cl)ccc21 [diazepam]
- number of entries to the open arms ([1]; diazepam 1.5 mg/kg p.o.): greater
- percentage of time spent on the closed arms ([1]; diazepam 1.5 mg/kg p.o.): significant increase
- sedation in the open field test ([2]; 1.5 mg/kg p.o.): caused significant sedation
- sedation in the open field test ([2]; 3 mg/kg p.o.): caused significant sedation
